Entries after “also recorded” stand apart in the source; their conditions may differ. Like-named read-outs stand apart in the source and are kept apart here.
Key:
B. subtilis ATCC-6633 = assay: Antibacterial activity, MIC by double-microdilution; assay type: cell-based
Method: (§1) Comparative antibacterial activities were determined in two representative strains of Gram-negative (E. coli R477-100) and Gram-positive (B. subtilis ATCC-6633) bacteria, by measuring the MIC values using the double-microdilution method according to the National Committee for Clinical Laboratory Standards (NCCLS) (NCCLS. National Committee for Clinical Laboratory Standards, Performance standards for antimicrobial susceptibility testing. Fifth information supplement: Approved Standard M100-S5; Villanova, Pa.: NCCLS, 1994.).
(§2) In all biological tests, all AGs were in their sulfate salt forms, and the concentrations refer to the free amine form of each AG. The eukaryotic and prokaryotic half-maximal-inhibition values (IC50^Euk and IC50^Pro) were quantified in coupled transcription/translation assays by using active luciferase detection as previously described. Minimal inhibitory concentration (MIC) values were determined by using the double-microdilution method.

[1] = system: cystic fibrosis G542X nonsense mutation; assay: Cell-free nonsense mutation suppression dose-response assay, firefly/renilla; assay type: biochemical, rabbit; conditions: 0-50 μM, FIGS. 4-7
Method: (§3) The plasmids were transcribed in vitro and translated using rabbit reticulocytes (TNT mix) and then tested for the expression levels of the firefly and renilla luciferases.
(§4) WT plasmids expressed both firefly and renilla luciferases while mutant plasmids expressed only the renilla luciferase due to the stop codon found in the inserted sequence. The readthrough assays were conducted for the tested compounds and the controls by adding the compounds to the in vitro transcription/translation reaction mixture. In case the compounds exerted suppression of the premature nonsense/stop codon mutation, the firefly luciferase was expressed and a fold-change in its expression was observed.
Readthrough activity of Cystic Fibrosis (CF) mutation G542X was tested using the compounds presented in Table 1, and the mutation suppression was calculated based on firefly/renilla expression ratio values, and normalized with respect to the expression level of the WT and the control sample (no tested compound).

[2] = system: Rett syndrome R168X, R270X and R294X nonsense mutations; assay: Cell-free nonsense mutation suppression assay, firefly/renilla; assay type: biochemical, rabbit; conditions: 5 μM, FIGS. 8A-C
Method: as §3, §4
FIGS. 8A-C present the results of Rett syndrome R168X (FIG. 8A), R270X (FIG. 8B) and R294X (FIG. 8C) nonsense mutations suppression cell-free assays conducted for six exemplary compounds according to embodiments of the present invention, NB144, NB145, NB146, NB150, NB151 and NB152, at a concentration of 5 μM. As shown therein, when compared with the control (non-treated cell extracts), the wild type cell extracts are unaffected (approx. 100%); however, in all three Rett syndrome mutation models there is a significant impact of the different treatments on the readthrough activity (>>>100%).

E. coli R477-100 = assay: Antibacterial activity, MIC by double-microdilution; assay type: cell-based; conditions: for MIC: Escherichia coli, R477100, read-out: Antibacterial Activity MIC E. Coli R 477/100
Method: as §1, §2

[3] = system: nonsense constructs R3X and R245X (USH1), Q70X (HS), G542X (CF); assay: Dual luciferase in vitro readthrough assay, p2Luc plasmids, TNT Reticulocyte Lysate; assay type: biochemical; conditions: for in vitro stop codon suppression (readthrough) activity compared with Compound 1: R3X nonsense mutation construct (USH1), FIG. 10
From the text: DNA fragments derived from PCDH15, CFTR, and IDUA cDNAs, including the tested nonsense mutation or the corresponding wild type (wt) codon, and four to six upstream and downstream flanking codons were created by annealing the following pairs of complementary oligonucleotides:
Fragments were inserted in frame into the polylinker of the p2Luc plasmid between either BamHI and SacI (p.R3X and p.R245X) or SalI and SacI (all the rest) restriction sites. For the in vitro readthrough assays, the obtained plasmids, with addition of the tested aminoglycosides were transcribed and translated using the TNT Reticulocyte Lysate Quick Coupled Transcription/Translation System. Luciferase activity was determined after 90 minutes of incubation at 30° C., using the Dual Luciferase Reporter Assay System (Promega™).
Activity was tested using a collection of dual-luciferase reporter plasmids, containing different sequence contests around premature stop codons derived from the PCDH15, CFTR, and IDUA genes that underline USH1, CF, and MPS I-H, respectively. The exemplified nonsense reporters were R3X and R245X for USH1, G542X for CF, and Q70X for MPS I-H.

[4] = system: prokaryotic ribosome (E. coli S30 extract); assay: Prokaryotic in vitro translation inhibition, coupled transcription/translation, E. coli S30 extract, pBESTluc; assay type: biochemical; conditions: from IC50^Pro and MIC values of Tables 4 and 6
Method: (§5) Prokaryotic in vitro translation inhibition by the different aminoglycosides was quantified in coupled transcription/translation assays by using E. coli S30 extract for circular DNA with the pBESTluc plasmid (Promega), according to the manufacturer's protocol. Translation reactions (25 μL) that contained variable concentrations of the tested aminoglycoside were incubated at 37° C. for 60 minutes, cooled on ice for 5 minutes, and diluted with a dilution reagent (tris-phosphate buffer (25 mM, pH 7.8), DTT (2 mM), 1,2-diaminocyclohexanetetraacetate (2 mM), glycerol (10%), Triton X-100 (1%) and BSA (1 mg mL-1)) into 96-well plates. Eukaryotic in vitro translation inhibition was quantified by use of TNT® T7 Quick Coupled Transcription/Translation System with a luciferase T7 control DNA plasmid (Promega), according to the manufacturer protocol. Translation reactions (25 μL) containing variable concentrations of the tested aminoglycoside were incubated at 30° C. for 60 minutes, cooled on ice for 5 minutes, diluted with the dilution reagent and transferred into 96-well plates. In both prokaryotic and eukaryotic systems the luminescence was measured immediately after the addition of the Luciferase Assay Reagent (50 μL; Promega), and the light emission was recorded with a FLx800 Fluorescence Microplate Reader (Biotek). The half-maximal inhibition concentration (IC50) values were obtained from fitting concentration-response curves to the data of at least two independent experiments by using Grafit 5 software.
as §2

[5] = system: premature termination codon (PTC); assay: Comparative in-vitro PTC suppression activity assays (Example 6); assay type: biochemical
[6] = system: eukaryotic cytoplasmic ribosome; assay: Eukaryotic in vitro translation inhibition, TNT T7 Quick Coupled Transcription/Translation System, luciferase; assay type: biochemical; conditions: NB156 vs NB74, NB157 vs NB124
Method: as §5, with “Translation reactions (25 μL) containing variable concentrations of the tested aminoglycoside were incubated at 30° C. for 60 minutes, cooled on ice for 5 minutes, diluted with the dilution reagent and transferred into 96-well plates.” left out, “The half-maximal inhibition concentration (IC50) values were obtained from fitting concentration-response curves to the data of at least two independent experiments by using Grafit 5 software.” left out
In all biological tests, all AGs were in their sulfate salt forms, and the concentrations refer to the free amine form of each AG. […] Minimal inhibitory concentration (MIC) values were determined by using the double-microdilution method.

[7] = Bacillus subtilis, ATCC6633, Table 4, read-out: Antibacterial Activity MIC B. Subtilis ATCC6633
[8] = Bacillus subtilis, ATCC6633, Table 6, read-out: Antibacterial activity MIC B. subtilis ATCC6633
[9] = all mutations tested: R3X, R245X, Q70X, G542X, FIGS. 11A-D

CC(O)C1O[C@H](O[C@@H]2C(N)C[C@@H](N)C(O)C2O[C@@H]2O[C@H]([C@H](C)N)C(O)C2O)C(N)C(O)[C@@H]1O (single isomer, unassigned) [NB124, reference compound]
MIC (B. subtilis ATCC-6633; [7]): 156 µM

CC(C)CN[C@@H]1CC(N)[C@@H](O[C@H]2OC([C@@H](C)O)[C@@H](O)C(O)C2N)C(O)C1O (stereo in doubt) [NB144]
G542X mutation suppression (readthrough) activity, dose-response [1]: notable dose-dependent readthrough activity

C[C@@H](O)C1O[C@H](O[C@@H]2C(N)C[C@@H](NCc3ccccc3)C(O)C2O)C(N)C(O)[C@@H]1O (stereo in doubt) [NB145]
G542X mutation suppression (readthrough) activity, dose-response [1]: notable dose-dependent readthrough activity

CCCN[C@@H]1CC(N)[C@@H](O[C@H]2OC([C@@H](C)O)[C@@H](O)C(O)C2N)C(O)C1O (stereo in doubt) [NB146]
G542X mutation suppression (readthrough) activity, dose-response [1]: clearly dose-dependent for all three compounds, and particularly for NB146; also recorded: notable dose-dependent readthrough activity
readthrough activity compared within the series [2]: better activity compared to NB144 and NB145

C[C@@H](O)C1O[C@H](O[C@@H]2C(N)C[C@@H](NC(=N)N)C(O)[C@H]2O)C(N)C(O)[C@@H]1O (stereo in doubt) [NB150]
G542X mutation suppression (readthrough) activity, dose-response [1]: notable dose-dependent readthrough activity

C[C@@H](O)C1O[C@H](O[C@@H]2C(N)C[C@@H](N)C(O)C2O[C@@H]2O[C@H](CNC(=N)N)C(O)C2O)C(N)C(O)[C@@H]1O (stereo in doubt) [NB151]
G542X mutation suppression (readthrough) activity, dose-response [1]: notable dose-dependent readthrough activity

C[C@@H](O)C1O[C@H](O[C@@H]2C(N)C[C@@H](NC(=O)C(O)CCN)C(O)C2O[C@@H]2O[C@H](CNC(=N)N)C(O)C2O)C(N)C(O)[C@@H]1O (stereo in doubt) [NB152]
G542X mutation suppression (readthrough) activity, dose-response [1]: notable dose-dependent readthrough activity
readthrough activity compared within the series [2]: higher activity compared to NB150 and NB151

NC[C@H]1O[C@@H](OC2C(O)[C@H](N)CC(N)[C@H]2O[C@H]2OC(CO)[C@@H](O)C(O)C2N)C(O)C1O (stereo partly drawn) [NB30, reference compound]
MIC (B. subtilis ATCC-6633; [8]): 100 µg/mL
MIC (E. coli R477-100): 790 µg/mL

C[C@H](N)[C@H]1O[C@@H](OC2C(O)[C@H](N)CC(N)[C@H]2O[C@H]2OC(CO)[C@@H](O)C(O)C2N)C(O)C1O (stereo partly drawn) [NB118, reference compound]
MIC (B. subtilis ATCC-6633; [8]): 83 µg/mL
MIC (E. coli R477-100): 2660 µg/mL

N[C@H]1[C@@H](O[C@H]2[C@H](O)[C@@H](O)[C@H](N)C[C@@H]2N)O[C@H]([C@H](O)CO)[C@@H](O)[C@@H]1O [NB153, (2R, 3S, 4R, 5R, 6S)-5-amino-6-(((1R, 2R, 3S, 4R, 6S)-4,6-diamino-2,3-dihydroxycyclohexyl)oxy)-2-((R)-1,2-dihydroxyethyl)tetrahydro-2H-pyran-3,4-diol]
MIC (B. subtilis ATCC-6633; [7]): 311 µM
MIC (E. coli R477-100): > 311 µM
in vitro stop codon suppression (readthrough) activity compared with Compound 1 [3]: dramatically increases its in vitro readthrough activity

N[C@H]1[C@@H](O[C@H]2[C@H](O)[C@@H](O)[C@H](N)C[C@@H]2N)OC(CO)=C[C@@H]1O [NB154, (1S,2R,3R,4S,6R)-4,6-diamino-3-(((2S,3R,4S)-3-amino-4-hydroxy-6-(hydroxymethyl)-3,4-dihydro-2H-pyran-2-yl)oxy)cyclohexane-1,2-diol]
prokaryotic ribosome/protein synthesis inhibition and subsequent antibacterial activity compared with structurally related compound [4]: significantly lower than that of the corresponding paromamine, NB30, and NB118
in-vitro PTC suppression activity compared with structurally related compound [5]: more or less similar activity as that of NB82
readthrough activity, fold higher than paromamine ([5]; preliminary comparative in-vitro PTC suppression assays): ~3.5 fold
MIC (B. subtilis ATCC-6633; [8]): > 384 µg/mL
MIC (E. coli R477-100): > 384 µg/mL

N[C@H]1[C@@H](O[C@H]2[C@H](O)[C@@H](O)[C@H](N)C[C@@H]2N)O[C@H]([C@@H](O)CO)[C@@H](O)[C@@H]1O [NB155, (2R, 3S, 4R, 5R, 6S)-5-amino-6-(((1R, 2R, 3S, 4R, 6S)-4,6-diamino-2,3-dihydroxycyclohexyl)oxy)-2-((S)-1,2-dihydroxyethyl)tetrahydro-2H-pyran-3,4-diol]
MIC (B. subtilis ATCC-6633; [7]): > 375 µM
MIC (E. coli R477-100): > 375 µM
in vitro stop codon suppression (readthrough) activity compared with Compound 1 [3]: somewhat higher activity of NB155 to that of Compound 1

C[C@H](N)[C@H]1O[C@@H](O[C@@H]2[C@@H](O)[C@H](N)C[C@H](N)[C@H]2O[C@H]2O[C@H]([C@H](O)CO)[C@@H](O)[C@H](O)[C@H]2N)[C@@H](O)[C@H]1O [NB157, (2R, 3S, 4R, 5R, 6S)-5-amino-6-(((1R, 2R, 3S, 4R, 6S)-4,6-diamino-2-(((2S, 3S, 4R, 5R)-5-((S)-1-aminoethyl)-3,4-dihydroxytetrahydrofuran-2-yl)oxy)-3-hydroxycyclohexyl)oxy)-2-((R)-1,2-dihydroxyethyl)tetrahydro-2H-pyran-3,4-diol]
prokaryotic ribosome/protein synthesis inhibition and subsequent antibacterial activity compared with structurally related compound [4]: very similar to those of their structurally related Compounds NB74 and NB124
MIC (B. subtilis ATCC-6633; [7]): 64 µM
MIC (E. coli R477-100): > 257 µM
fold more specific to the eukaryotic ribosome than structurally related compound [6]: 1.25 fold
readthrough activity compared with gentamicin [3, 9]: significantly better than that of the clinical drug gentamicin
readthrough activity compared with structurally related compound [3, 9]: better than its structurally related NB124

NC[C@H]1O[C@@H](O[C@@H]2C(O)[C@H](N)CC(N)[C@H]2O[C@H]2OC(CO)=CC(O)[C@@H]2N)C(O)[C@H]1O (stereo partly drawn) [NB158]
prokaryotic ribosome/protein synthesis inhibition and subsequent antibacterial activity compared with structurally related compound [4]: significantly lower than that of the corresponding paromamine, NB30, and NB118
MIC (B. subtilis ATCC-6633; [8]): 192 µg/mL

C[C@H](N)[C@H]1O[C@@H](O[C@@H]2C(O)[C@H](N)CC(N)[C@H]2O[C@H]2OC(CO)=CC(O)[C@@H]2N)C(O)[C@H]1O (stereo partly drawn) [NB159]
prokaryotic ribosome/protein synthesis inhibition and subsequent antibacterial activity compared with structurally related compound [4]: significantly lower than that of the corresponding paromamine, NB30, and NB118
MIC (B. subtilis ATCC-6633; [8]): 192 µg/mL

gentamicin [reference compound]
MIC (B. subtilis ATCC-6633; Table 4, read-out: Antibacterial Activity MIC B. Subtilis ATCC6633): <0.75 µM
Antibacterial Activity MIC E. Coli R 477/100 (E. coli R477-100; Table 4): 6 µM

Reference: patent publication US10899785B2, “Aminoglycoside derivatives and uses thereof in treating genetic disorders” (Eloxx Pharmaceuticals Ltd., priority 2015, dated 2021)
